Assay results reported in US6071884A, “Pharmaceutical compositions and therapeutic methods” (Kirin Beer Kabushiki Kaisha, priority 1992, dated 2000).

Key:
blood platelets [1] = assay: Blood-platelet-increasing effect upon normal mouse; format: in vivo, mouse (BDF1); conditions: normal mice; 6 days after 0.1 mg/kg i.v.; mean ± SD; vehicle per series 58.2, 63.0, 71.1
Protocol: Pharmacological Test 6: Blood-Platelet-Increasing Effect upon Mouse
An experiment was carried out by using 6 week old female BDF1 mice purchased from Japan SLC Co., Ltd., with 5 mice made one group.
Each sample was administered to the caudal vein of the mice at a dose of 0.1 mg/kg. After 6 days, blood was collected from the fundus vein of the mice, and the number of blood platelets was measured by a sequential multi-channel hemocytometer E-2500/cs (Toa Iyo Denshi Kabushiki Kaisha). The number of blood platelets of the vehicle-administered group, and that of the sample-administered group are shown in Table 6.

blood platelets [2] = assay: Thrombocytopenia-inhibiting effect in X-ray-irradiated mice; format: in vivo, mouse (BDF1); conditions: 10 days after 5 Gy X-ray; 0.1 mg/kg i.v. within 2 h; mean ± SD; vehicle per series 10.3, 6.8, 6.7; non-treatment 68.2, 96.9, 73.0
Protocol: Pharmacological Test 5: Thromboclytopenia-Inhibiting Effect
The thrombocytopenia-inhibiting effect of each sample upon an X-ray-irradiated mouser which is one of models with a decreased number of blood platelets was examined.
An experiment was carried out by using 6 week old female BDF1 mice purchased from Japan SLC Co., Ltd., with 6 mice made one group.
5 Gy of X ray was irradiated to the entire body of the mice by a Hitachi X-ray irradiator CMBR-1520R). Within 2 hours after the irradiation, each sample was administered to the caudal vein of the mice at an amount of 0.1 mg/kg.
After 10 days, blood was collected from the fundus vein of the mice, and the number of blood platelets was measured by a sequential multi-channel hemocytometer E-2500/cs (Toa Iyo Denshi Kabushiki Kaisha). The number of blood platelets of the non-treated group, that of the medium-administered group, and that of the sample-administered group are shown in Table 5.

[3] = tested on: mononuclear cell fraction of human umbilical cord blood; assay: Proliferation-stimulating effect on mononuclear cell fraction of human umbilical cord blood (3H-TdR uptake); format: cell-based; conditions: 96 h, percentage of control, 4 days; for activity at 0.1 µg/mL: 10^-1 μg/ml; for activity at 0.01 µg/mL: 10^-2 μg/ml; for activity at 0.001 µg/mL: 10^-3 μg/ml
Description: Pharmacological Test 3: Proliferation-Stimulating Effect on Mononuclear Cell Fraction of Human Umbilical Cord Blood
It is extremely difficult to obtain human marrow cells. In addition, human umbilical cord blood contains stem cells (Nakahata, T. & Ogwa, M., J. Clin. Inveet. 70, 1324-1328 (1982)), so that it can be a good source of hematopoietic stem/progenitor cell supply (H. E. Broxneyer et al, Proc. Natl. Acad. Sci. USA, 86, 3828-3832 (1989)). For these reasons, the effect on human was examined by using, instead of human marrow cells, human umbilical cord blood.
To human umbilical cord blood was added an equal amount of RPMI 1640. This was placed on a Lymphoprep and centrifugal. The mononuclear cell fraction (MNF) thus obtained was used in the following experiment.
(§1) The concentration of the MNF was adjusted to 1×10^6 cells/ml by using an RPMI 1640 added with 10% auto-blood plasma as a culture medium. 10 μl/well of a sample with a predetermined concentration and 100 μl/well of the above-prepared MNF were placed on a round-bottomed 96 well plate and incubated under the conditions of 37° C. and 5% CO2 for 4 days. Thereafter, 0.5 μCi/well of ^3 H-TdR was added. After 8 hour incubation, the cells were harvested, and the amount of the 3H-TdR taken in the nuclei was measured by a liquid scintillation counter.

[4] = tested on: marrow cells (mononuclear cell fraction); assay: Proliferation-stimulating effect on marrow cell of mouse (3H-TdR uptake); format: cell-based, mouse (BALB/c); conditions: percentage of control, 72 h; for activity at 0.1 µg/mL: 10^-1 μg/ml; for activity at 0.01 µg/mL: 10^-2 μg/ml; for activity at 0.001 µg/mL: 10^-3 μg/ml; for activity at 1 µg/mL: 10^0 μg/ml
Protocol: Pharmacological Test 1: Proliferation-Stimulating Effect on Marrow Cell of Mouse
Marrow cells were prepared from the thigh bone of a 7 week old female BALB/c mouse purchased from Japan SLC Co., Ltd., and a mononuclear cell fraction (MNF) obtained by fractionation using a lympholyte-M (Cedar Lane, Ontario, Canada) was used in the following experiment.
as §1, with “to 1.5×10^6” for “to 1×10^6”, “using 10% FCS” for “using an”, “1640 (Nissui Pharmaceutical Co., Ltd., Tokyo, Japan)” for “1640 added with 10% auto-blood plasma”, “well plate,” for “well plate”, “for 72 hours.” for “for 4 days.”, “^3 H-thymidine (^3 H-TDR)” for “^3 H-TdR”

[5] = Life-span-increasing effect on irradiation of a lethal dose of radiation; format: in vivo, mouse (BDF1); conditions: 10 mice/group, 9 Gy X-ray, 0.1 mg/kg i.v. days 0, 4, 8
Protocol: Pharmacological Test 4: Life-Span-Increasing Effect on Irradiation of a Lethal Dose of Radiation
An experiment was carried out by using 6 week old female BDF1 mice purchased from Japan SLC Co., Ltd., with 10 mice made one group.
The entire bodies of the entire body of the mice were irradiated with 9 Gy of X-rays by using a Hitachi X-ray irradiator (MBR-1520R), and the day on which the X-ray was irradiated was referred to as "day 0".

[6] = day 10, controls per series 10, 10, 10, 10, 10, 8
[7] = day 15, controls per series 8, 9, 5, 5, 7, 1
[8] = day 20, controls per series 4, 5, 1, 2, 3, 0
[9] = day 25, controls per series 3, 3, 0, 0, 2, 0
[10] = day 30, controls per series 1, 1, 0, 0, 0, 0

Row | Compound | Number of Blood Platelets (blood platelets [1]) | Number of Blood Platelets (blood platelets [2]) | activity at 0.1 µg/mL [3] | activity at 0.01 µg/mL [3] | activity at 0.001 µg/mL [3] | activity at 0.1 µg/mL [4] | activity at 0.01 µg/mL [4] | activity at 0.001 µg/mL [4] | Number of Surviving Mice [5, 6] | Number of Surviving Mice [5, 7] | Number of Surviving Mice [5, 8] | Number of Surviving Mice [5, 9] | Number of Surviving Mice [5, 10] | Number of Surviving Mice ([5]; day 35, all controls 0) | Number of Surviving Mice ([5]; day 40, all controls 0) | activity at 1 µg/mL [4]
1 | CCCCCCCCCCCCCCCCCCCCCC[C@@H](O)C(=O)N[C@@H](CO[C@H]1O[C@H](CO)[C@H](O)[C@H](O)[C@H]1O)[C@H](O)CCCCCCCCCCCCCCC [Compound 14, (2S,3R)-1-(α-D-galactopyranosyloxy)-2-[(R)-2-hydroxytetracosanoylamino]-3-octadecanol] | 101.6 ± 8.3 × 10^4 /μl | 22.3 ± 6.6 × 10^4 /μl | 233% | 141% | 96% | 511% | 132% | 134% | 10 mice | 10 mice | 10 mice | 9 mice | 9 mice | 9 mice | 9 mice | 
2 | CCCCCCCCCCCCCCCCCCCCCCCC(=O)N[C@@H](CO[C@H]1O[C@H](CO)[C@H](O)[C@H](O)[C@H]1O)[C@H](O)[C@H](O)CCCCCCCCCCCCCC [Compound 16, (2S,3S,4R)-1-(α-D-galactopyranosyloxy)-2-tetracosanoylamino-3,4-octadecanediol] | 114.7 ± 13.0 × 10^4 /μl | 21.1 ± 6.2 × 10^4 /μl | 311% | 204% | 216% | 495% | 152% | 115% | 10 mice | 6 mice | 6 mice | 6 mice | 6 mice | 6 mice | 6 mice | 
3 | CCCCCCCCCCCCCCCCCCCCCCCC(=O)N[C@@H](CO[C@H]1O[C@H](CO)[C@H](O)[C@H](O)[C@H]1O)[C@H](O)[C@H](O)CCCCCCCCCCCCC [Compound 17, (2S,3S,4R)-1-(α-D-galactopyranosyloxy)-2-tetracosanoylamino-3,4-heptadecanediol] | 92.1 ± 11.3 × 10^4 /μl | 18.5 ± 4.4 × 10^4 /μl | 318% | 233% | 98% | 462% | 149% | 159% | 10 mice | 10 mice | 9 mice | 9 mice | 9 mice | 9 mice | 9 mice | 
4 | CCCCCCCCCCCCCCCCCCCCCCCC(=O)N[C@@H](CO[C@H]1O[C@H](CO)[C@H](O)[C@H](O)[C@H]1O)[C@H](O)[C@H](O)CCCCCCCCCCC [Compound 18, (2S,3S,4R)-1-(α-D-galactopyranosyloxy)-2-tetracosanoylamino-3,4-pentadecanediol] | 111.7 ± 5.4 × 10^4 /μl | 24.3 ± 8.6 × 10^4 /μl | 298% | 177% | 135% | 472% | 124% | 129% | 10 mice | 10 mice | 8 mice | 7 mice | 7 mice | 7 mice | 7 mice | 
5 | CCCCCCCCCCCCCCCCCCCCCC[C@H](O)C(=O)N[C@@H](CO[C@H]1O[C@H](CO)[C@H](O)[C@H](O)[C@H]1O)[C@H](O)[C@H](O)CCCCCCCCCCCC(C)C [Compound 30, (2S,3S,4R)-1-(α-D-galactopyranosyloxy)-2-[(S)-2-hydroxytetracosanoylamino]-16-methyl-3,4-heptadecanediol] | 106.2 ± 9.0 × 10^4 /μl | 22.5 ± 3.5 × 10^4 /μl |  |  |  | 293% | 105% | 92% | 10 mice | 10 mice | 10 mice | 10 mice | 10 mice | 10 mice | 10 mice | 712%
6 | CCCCCCCCCCCCCCCCCCCCCCCC(=O)N[C@@H](CO[C@H]1O[C@H](CO)[C@H](O)[C@H](O)[C@H]1O)[C@H](O)[C@H](O)CCCCCCCCCCCC(C)C [Compound 31, (2S,3S,4R)-1-(α-D-galactopyranosyloxy)-16-methyl-2-tetracosanoylamino-3,4-heptadecanediol] | 108.0 ± 7.0 × 10^4 /μl | 27.7 ± 5.4 × 10^4 /μl |  |  |  | 326% | 104% | 101% | 10 mice | 10 mice | 9 mice | 9 mice | 9 mice | 9 mice | 9 mice | 624%
7 | CCCCCCCCCCCCC/C=C/[C@@H](O)[C@H](CO[C@H]1O[C@H](CO)[C@H](O)[C@H](O)[C@H]1O)NC(=O)CCCCCCCCCCCCC [Compound 32, (2S,3R,4E)-1-(α-D-galactopyranosyloxy)-2-tetradecanoylamino-4-octadecen-3-ol] | 88.3 ± 4.2 × 10^4 /μl | 16.4 ± 3.2 × 10^4 /μl |  |  |  | 405% | 151% | 115% | 10 mice | 9 mice | 4 mice | 3 mice | 3 mice | 3 mice | 3 mice | 871%
